Data as given in patent publication US20110059114A1, “Compositions and Methods for the Treatment of Radioresistant Glioma Stem Cells” (DUKE UNIVERSITY, priority 2009, published 2011).

Assays:
[1] = test system: CD133+ cells enriched from medulloblastoma cell lines; conditions: cited from earlier work
[2] = test system: T4302 CD133+ cells; test: Annexin V staining, flow cytometry; format: cell-based, human
Method: (§1) FIG. 2 is a series of graphs illustrating that γ-secretase inhibitors enhance radiation-induced cell death in glioma stem cells. (A) T4302 CD 133+ cells were pre-treated with DAPT or L685,458 for 4 hours and irradiated at 3 Gy. Percentage of dead cells was determined by trypan blue exclusion assay at 48 hours after radiation exposure. (B) T4302 CD 133+ cells were treated with GSIs ±radiation as indicated. Cells were then plated at 3000 cells per well in 96-well plates. Relative caspase 3/7 activities were determined by normalizing caspase activities to the corresponding cell titers. (C) T4302 CD 133+ cells were treated as described in FIG. 2A. 24 or 48 hours after radiation exposure, cells were labeled with FITC-conjugated Annexin V staining kit (BD Sciences) according to manufacturer's instructions and analyzed by flow cytometry. (D) T4302 CD 133+ cells were pre-treated with 2 μM DAPT for 4 hours, and were left unirradiated or irradiated at 1, 2 or 3 Gy. Relative caspase 3/7 activities were determined at 72 hours after radiation. (E) T4302 CD133+ cells were pre-treated with DAPT at indicated concentrations for 4 hours and irradiated at 3 Gy. Relative caspase activities were determined at 48 or 72 hours after radiation. *: p<0.01 by Student's t-test; #: p<0.01 by one-way ANOVA.

[3] = test system: T4302 CD133+ glioma stem cells; test: Growth curve, CellTiter-Glo Luminescent Cell Viability Assay; format: cell-based, human; conditions: without radiation treatment, day five; 2 μM DAPT or 0.5 μM L685,458
From the text: (§2) FIG. 1 is a series of graphs illustrating that γ-secretase inhibitors reduce cell growth and clonogenic survival of glioma stem cells following radiation. (A) T4302 CD133+ glioma stem cells were transfected with a Notch-responsive luciferase reporter (RBP-JK reporter) pre-mixed with the vector directing constitutive expression of Renilla luciferase. Cells were left unirradiated or irradiated at 3 Gy, and were then collected to measure luciferase activities at time points as indicated. […] The relative mRNA levels of Hes2 were determined by quantitative real-time PCR at the time points as indicated. […] Total viable cell numbers were then determined by the CellTiter-Glo Luminescent Cell Viability Assay (Promega) for the following five days. […] Cells were then plated to form neurospheres, and the surviving fractions were determined as described in methods. […] (F,G) Neurosphere formation of T3359 and T4105 CD 133+ cells treated with GSIs alone, 3-Gy radiation alone, or the combination was determined as described in FIG. 1E. *: p<0.05 by Student's t-test; #: p<0.001 by one-way ANOVA.
Growth Curve, caspase 3/7 assay, and clonogenic survival assay. […] Cell number was measured for 5 days using the CellTiter-Glo assay kit (Promega, Madison, […].). […]

[4] = test system: Chk1 and Chk2; test: Immunoblotting of activating phosphorylation of Chk1 and Chk2; format: cell-based, human; conditions: following radiation, pretreated 24 hours
Method: (A) T4302 CD133+ cells were pretreated with DPAT or L685,458 for 24 hours prior radiation. One hour after radiation exposure, cells were harvested. The levels of activating phosphorylation of Chk1 and Chk2 were assessed by immunoblotting. (B) T4302 CD133+ cells were treated with 2 μM DAPT at 4, 24 hours prior to radiation (−24 hrs, or -4 hrs), or at 0, 4, 24 hours after radiation. Relative caspase 3/7 activities were measured 3 days after radiation exposure. *: p<0.001 by Student's t-test.
Antibodies, DNA constructs, lentiviruses and other reagents. The antibodies purchased from Cell Signaling Technology (Danvers, M A) include phosphor-S296-Chk1 (2349), total Chk1 (2345), phosphor-T68-Chk2 (2661), total Chk2 (2662), phospho-5473 Akt (#9271), total Akt (#9272), PTEN (#9556), phospho-S15-p53 (#9286), Bcl-2 (#2870), Bcl-xL (#2764), Mcl-1 (#4572), Puma (#4976). Other antibodies used in this study are p53 antibody (#sc-126, Santa Cruz Biotechnology, Santa Cruz, Calif.), and actin antibody (Millipore, Billerica, Mass.). The pcDNA3-Notch1 construct was kindly provided by Dr. Spyros Artavanis-Tsakonas, Harvard University. The coding sequences of intracellular domain of Notch1 (amino acid residues 1744-2556) was amplified by PCR and subcloned into the lentiviral vector pCDH-CMV-EF1-puro (System Biosciences, Mountain View, Calif.) through the EcoRI and NotI sites. […]

[5] = test system: T4302 CD133+ cells; test: Trypan blue exclusion assay; format: cell-based, human; conditions: two days after 3-Gy radiation
Method: as §1

[6] = test system: Notch signaling; test: Notch-responsive luciferase reporter (RBP-Jκ reporter) assay; format: cell-based, human; conditions: T4302 CD133+ cells; 2 μM DAPT or 0.5 μM L685,458 over night
From the text: as §2
Luciferase assay. […] The luciferase activities were determined by the Dual-luciferase assay system (Promega).

Structure (SMILES)	apoptosis and differentiation in CD133+ cells [1]	apoptosis in nestin-expressing cells in comparison to nestin-negative cells [1]	tumorigenic capacity of CD133+ cells [1]	Annexin V-positive labeled cells ([2]; 24 hours following 3 Gy radiation)	Annexin V-positive labeled cells ([2]; 48 hours following 3 Gy radiation)	sham-treated cells more than GSI-treated cells (total cell number) [3]	activating phosphorylation of Chk1 or Chk2 [4]	dead cells [5]	Notch signaling in glioma stem cells (Notch-responsive luciferase reporter) [6]
O=S(=O)(NC1[C@@H]2CC[C@H]1Cc1ccccc1C2)c1cccs1 (stereo partly drawn) [GSI-18]	induces apoptosis and differentiation	10 fold	impairs the tumorigenic capacity						
CC(C)C[C@H](NC(=O)[C@H](Cc1ccccc1)C[C@@H](O)[C@H](Cc1ccccc1)NC(=O)OC(C)(C)C)C(=O)N[C@@H](Cc1ccccc1)C(N)=O [L685,458]				not obvious	significantly increased	60%	Neither of DAPT or L685,458 significantly altered	60%	blocked
